Consider one compound from patent US10351501B2, “Gem difluorocompounds as depigmenting or lightening agents” (TFCHEM, priority 2015, dated 2019).

SMILES strings stand for the structures. Like-named read-outs stand apart in the source and are kept apart here.

Data set [1] in a line: In vitro human skin absorption, Franz diffusion cell: quantification in skin fractions (epidermis, dermis). It is filed as in vitro ADME. As to conditions: emulsion 0.1 mg/mL, 200 μL, T24 h. The text has this:
The aim of this study was to evaluate the absorption of compound 11 applied to excised human skin.
In vitro method using a Franz diffusion cell allows measuring the diffusion of chemicals into and across skin.
The tested compound is applied to the surface of a human skin explant separating the two chambers of a Franz diffusion cell. The compound remains on the skin for a specified time under specified conditions. The receptor fluid is sampled at time points throughout the experiment and analyzed for the tested compound. The skin may also be fractioned for separate analysis in epidermis or dermis layers.
The transcutaneous absorption was measured on human skin collected from the abdominoplasty of a single donor. […]
The tested compounds were quantified, at T0 h and T24 h in the receptor solution bathing the inner surface of the skin (determination of flux), or at T24 h in the fractionated skin extracts (epidermis or dermis).
To prepare the extracts, the skin explant is firstly divided in dermis and epidermis layers, then 500 μL of methanol were added on each piece of skin and incubated in an ultrasonic bath for 4 hours. […] Secondly the quantification of compounds by LC-MS/MS method was realized on 100 μl of the previous preparation added with 1000 μl of ultrapure water and 10 μl of an internal standard […]
The skin extracts were prepared at T24 h and the quantification of compound 11 was performed. […]

Data set [2] has as its target T1, human recombinant tyrosinase (Homo sapiens, UniProt P14679).
T1 sequence (P14679 19-529): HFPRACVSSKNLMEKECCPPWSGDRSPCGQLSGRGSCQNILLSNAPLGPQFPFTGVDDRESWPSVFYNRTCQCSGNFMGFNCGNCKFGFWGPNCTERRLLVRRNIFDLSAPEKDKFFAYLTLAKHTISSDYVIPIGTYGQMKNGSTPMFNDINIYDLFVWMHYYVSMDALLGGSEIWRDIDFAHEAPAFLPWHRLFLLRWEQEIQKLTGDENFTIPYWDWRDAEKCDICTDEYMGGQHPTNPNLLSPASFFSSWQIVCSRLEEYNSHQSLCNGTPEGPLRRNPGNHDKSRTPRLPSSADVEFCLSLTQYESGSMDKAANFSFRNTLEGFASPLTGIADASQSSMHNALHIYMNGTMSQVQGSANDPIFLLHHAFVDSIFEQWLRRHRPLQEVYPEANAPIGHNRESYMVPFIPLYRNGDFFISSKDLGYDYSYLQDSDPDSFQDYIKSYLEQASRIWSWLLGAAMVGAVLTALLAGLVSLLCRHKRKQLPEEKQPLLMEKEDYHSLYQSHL
Put plainly: Inhibition of human tyrosinase in tubo (L-DOPA substrate, OD at 477 nm), IC50. It is filed as biochemical. Particulars: for IC50: Tyrosinase Concentration 300 U/mL. As to the method: Substrate solution: L-DOPA (1 mg/mL) Solution B (L-DOPA 20 mg/Purified water up to 20 mL)
Preparation of Test Solutions (for IC50 Test—Examples for Deoxyarbutin)
Inhibitors solutions deoxyarbutin (1 mg/mL): Deoxyarbutin 20 mg in purified water up to 20 mL
This assay used a 96-well plate. Test solutions and controls were made several times.
The results were calculated from the OD measured at time point 20 min.
The determination of half maximal inhibitory concentration (IC50) was performed using the following formula.

The nature of data set [3]: In vitro stability: hydroquinone released in various chemical conditions (HPLC-UV/DAD). It is filed as physicochemical. As to the method: The stability of compound 11 was evaluated by the released of hydroquinone, which is a potentially toxic compound, in different chemical conditions (extreme conditions, simulating the application of these molecules on the skin) and it was compared to the deoxyarbutin.
This study involved different tests as degradation test and chemical stability (various chemical solutions, pH and temperatures).
Analytical Method (HPLC-UV/DAD Method)
Column Atlantis dC18 150 mm*4.6 mm*3 μm Waters, 30° C. Injection 50 μl, 25° C. λ: 220 nm, 265 nm, 285 nm. A-Acetonitrile B-Water; 0.8 ml/min; elution gradient: […]
This analytical method gave linear response for compound 11, Deoxyarbutin and Hydroquinone from 25 ng/mL to 1000 ng/mL. Dilution of samples had to be taken into account for each stability study to calculate the LLOQ of each compound.
The tested compounds are incubated in different solutions, at different times (see table 1). Then the analytical method was used to quantify remaining compounds and potential hydroquinone released (as possible degradation of compounds).
Hydroquinone (HQ) apparition is expressed as a percentage of initial compound 11 or Deoxyarbutin. The calculation was done in molar units and the limit of quantification fluctuates with the initial concentration.

For the compound `Oc1ccc(OC2CCCCC2(F)F)cc1` (racemic) [Compound 11], the figures for the “Quantity in skin extract” value in data set [1] (DERMIS) and in data set [1] (EPIDERMIS) were 5.1 μg/g of tissue and 22.3 μg/g of tissue, respectively. Besides, the half-maximal inhibitory concentration (IC50) (commonly the concentration that gives 50% inhibition) in data set [2] (mean of 4 tests, read-out: Calculated IC50 Mean (converted)) was 35.1 µM; in data set [2] (read-out: IC50), 35 µM; in data set [2] (time 20 min, read-out: Calculated IC50 Test #1 (converted)) it was 35.1 µM; in data set [2] (time 20 min, read-out: Calculated IC50 Test #2 (converted)), 35.1 µM; in data set [2] (time 20 min, read-out: Calculated IC50 Test #3 (converted)) it was 35.1 µM; in data set [2] (time 20 min, read-out: Calculated IC50 Test #4 (converted)), 35.1 µM. The “inhibits the human recombinant tyrosinase, times more than the Deoxyarbutin” value in data set [2] (comparison of IC50) is given as 7-8 times. For the same compound, the “% Hydroquinone released” value in data set [3] (Ringer's solution pH 5.5 at 70° C., 24 H) came to 0.00%; in data set [3] (Ringer's solution pH 8.5 at 70° C., 24 H), 0.00%; in data set [3] (Synthetic perspiration at RT, 48 H) it was 0.00%; in data set [3] (Water at room temperature, 14 Days), 0.00%. Moreover, the Hydroquinone release result in data set [3] (whatever the tested conditions) is “never released”.
